Assay results reported in publication PMC4072508, “Genome-Wide Prediction and Validation of Peptides That Bind Human Prosurvival Bcl-2 Proteins” (PLoS Computational Biology, 2014).
Where “and” joins values, the source holds several entries; their conditions need not be identical. Identical values can stand only once. Like-named read-outs stand apart in the source and are kept apart here. Residues, ends and D or L forms follow the SMILES beside them. No end group written: not given here.

Columns and labels:
[1] = molecular target: T1, Bcl-w (Homo sapiens, UniProt Q92843, Q133R); assay: Fluorescence polarization direct binding
T1 construct: myc-Bcl-w SPOT array & FP; made in house
T1 sequence (Q92843 with tags, fused parts or gaps Q133R): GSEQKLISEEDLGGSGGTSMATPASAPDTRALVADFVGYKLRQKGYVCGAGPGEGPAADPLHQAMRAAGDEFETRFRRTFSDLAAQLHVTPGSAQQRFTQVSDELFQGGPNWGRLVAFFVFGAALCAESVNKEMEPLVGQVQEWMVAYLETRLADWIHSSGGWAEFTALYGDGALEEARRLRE
Description: (§1) Peptides were purified by reverse-phase HPLC using a C18 column and a linear water/acetonitrile gradient. We re-analyzed the purified peptide by mass spectrometry if there was not a single well-defined peak in HPLC chromatogram.
(§2) Fluorescence polarization (FP) assays were done at 25°C in assay buffer (20 mM NaPO4, 50 mM NaCl, 1 mM EDTA, 0.001% Triton X (v/v), pH 7.8). […] For all FP experiments, the total well volume was 120 µl. […] Anisotropy was measured using a Spectramax M5 plate reader from Molecular Devices.
(§3) Direct binding curves were fit using Pylab/Scipy/Optimize to a single-site binding model utilized previously.
(§4) ^1Best-fit KD values determined by combining all replicate titration curves and fitting to a direct binding model (see Methods). […] Values with an X followed by a number indicate the highest concentration (the number, in nM) for which signal was measured yet no binding was detected.

[2] = molecular target: T2, Mcl-1 (Homo sapiens, UniProt Q07820); assay: Fluorescence polarization direct binding
T2 construct: myc-Mcl-1 SPOT array & FP; made in house
Description: as §1, §2, §3, §4

[3] = molecular target: T3, Bfl-1 (Homo sapiens, UniProt Q16548); assay: Fluorescence polarization direct binding
T3 construct: myc- Bfl-1 SPOT array & FP; made in house
T3 sequence (Q16548 with tags, fused parts or gaps): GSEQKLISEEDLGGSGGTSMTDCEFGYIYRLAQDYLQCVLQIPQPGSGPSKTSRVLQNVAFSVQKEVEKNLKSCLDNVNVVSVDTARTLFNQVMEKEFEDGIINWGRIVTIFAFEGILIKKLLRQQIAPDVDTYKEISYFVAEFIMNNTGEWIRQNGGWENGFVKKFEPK
Description: as §1, §2, §3, §4

[4] = molecular target: T4, Bcl-2 (Homo sapiens, UniProt P10415, DEL53-91); assay: Fluorescence polarization direct binding
T4 construct: myc- Bcl-2 FP; made in house
Description: as §1, §2, §3, §4

[5] = molecular target: T5, Bcl-xL (Homo sapiens, UniProt Q07817); assay: Fluorescence polarization direct binding
T5 construct: myc-Bcl-xL SPOT array & FP; made in house
Description: as §1, §2, §3, §4

[6] = molecular target: T2, Mcl-1; conditions: read-out: Binder class, Mcl-1, cited from earlier work
Source text: Negative control mutatio ...

[7] = FP direct binding, 10 nM FAM-labeled peptide, receptor titrated, 25°C, pH 7.8, fit of all replicate titrations, X+number in a cell = highest concentration (nM) measured with no binding detected, given here as >, SPNS1 fit to raw fluorescence, read-out: Best-fit KD, Bcl-w
[8] = benchmark classification of peptides newly characterized in this study, read-out: Binder class, Bcl-w
[9] = Binder class, Mcl-1, benchmark classification of peptides newly characterized in this study
[10] = FP direct binding, 10 nM FAM-labeled peptide, receptor titrated, 25°C, pH 7.8, fit of all replicate titrations, X+number in a cell = highest concentration (nM) measured with no binding detected, given here as >, SPNS1 fit to raw fluorescence
[11] = FP direct binding, 10 nM FAM-labeled peptide, receptor titrated, 25°C, pH 7.8, fit of all replicate titrations, X+number in a cell = highest concentration (nM) measured with no binding detected, given here as >, SPNS1 fit to raw fluorescence, read-out: Best-fit KD, Bfl-1
[12] = benchmark classification of peptides newly characterized in this study, read-out: Binder class, Bfl-1
[13] = FP direct binding, 10 nM FAM-labeled peptide, receptor titrated, 25°C, pH 7.8, fit of all replicate titrations, X+number in a cell = highest concentration (nM) measured with no binding detected, given here as >, SPNS1 fit to raw fluorescence, read-out: Best-fit KD, Bcl-2
[14] = benchmark classification of peptides newly characterized in this study, read-out: Binder class, Bcl-2
[15] = FP direct binding, 10 nM FAM-labeled peptide, receptor titrated, 25°C, pH 7.8, fit of all replicate titrations, X+number in a cell = highest concentration (nM) measured with no binding detected, given here as >, SPNS1 fit to raw fluorescence, read-out: Best-fit KD, Bcl-xL
[16] = benchmark classification of peptides newly characterized in this study, read-out: Binder class, Bcl-xL
[17] = S1 Bim variants, specific binding measured using yeast display, ref Dutta et al. (2010)
[18] = S2 Bim variants, ref Dutta et al. (2013)
[19] = natural BH3 peptides, interactions taken from literature

T4 sequence (P10415 with tags, fused parts or gaps DEL53-91): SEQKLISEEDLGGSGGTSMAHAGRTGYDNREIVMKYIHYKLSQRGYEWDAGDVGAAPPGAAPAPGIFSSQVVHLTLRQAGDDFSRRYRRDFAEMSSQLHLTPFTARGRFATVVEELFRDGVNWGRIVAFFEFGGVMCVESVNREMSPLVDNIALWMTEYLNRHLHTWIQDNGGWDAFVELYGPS
T5 sequence (Q07817 with tags, fused parts or gaps): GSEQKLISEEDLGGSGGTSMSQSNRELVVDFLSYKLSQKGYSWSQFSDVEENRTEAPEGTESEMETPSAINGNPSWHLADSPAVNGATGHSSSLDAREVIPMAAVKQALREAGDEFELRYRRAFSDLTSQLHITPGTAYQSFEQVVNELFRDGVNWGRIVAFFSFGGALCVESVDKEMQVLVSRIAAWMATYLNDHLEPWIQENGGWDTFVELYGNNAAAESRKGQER
T2 sequence (Q07820 with tags, fused parts or gaps): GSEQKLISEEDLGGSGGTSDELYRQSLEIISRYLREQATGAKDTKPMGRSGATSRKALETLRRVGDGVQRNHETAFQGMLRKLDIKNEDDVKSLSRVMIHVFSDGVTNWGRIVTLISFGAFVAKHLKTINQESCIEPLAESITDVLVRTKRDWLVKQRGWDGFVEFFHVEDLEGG

## CC[C@H](C)[C@H](N)C(=O)N[C@H](C(=O)N[C@@H](CCC(N)=O)C(=O)N[C@@H](CCSC)C(=O)N[C@H](C(=O)N[C@H](C(=O)N[C@@H](CCC(=O)O)C(=O)N[C@@H](CC(C)C)C(=O)N[C@@H](CC(C)C)C(=O)N[C@@H](CCCCN)C(=O)N[C@@H](CCCNC(=N)N)C(=O)N[C@H](C(=O)NCC(=O)N[C@@H](CC(=O)O)C(=O)N[C@@H](CCC(N)=O)C(=O)N[C@@H](Cc1c[nH]c2ccccc12)C(=O)N[C@@H](CCC(=O)O)C(=O)N[C@@H](CCC(=O)O)C(=O)N[C@@H](CCC(=O)O)C(=O)N[C@@H](CCC(N)=O)C(=O)N[C@@H](CO)C(=O)N[C@@H](CC(C)C)C(=O)N[C@@H](C)C(N)=O)C(C)C)C(C)C)[C@@H](C)CC)[C@@H](C)CC [C6orf222]
[1]; [7]
  Kd: < 30 nM and 13 nM
[1]; [8]
  Kd: < 1000 nM
[2]; [9]
  Kd: < 1000 nM
[2]; [10]
  Kd: < 30 nM and 23 nM
[3]; [11]
  Kd: < 30 nM and 1 nM
[3]; [12]
  Kd: < 1000 nM
[4]; [13]
  Kd: < 30 nM and 0.3 nM
[4]; [14]
  Kd: < 1000 nM

## CC[C@H](C)[C@H](NC(=O)[C@@H](NC(=O)[C@H](CCSC)NC(=O)CNC(=O)[C@H](CCCNC(=N)N)NC(=O)[C@H](CO)NC(=O)[C@H](CCC(N)=O)NC(=O)[C@H](CC(C)C)NC(=O)[C@H](CC(C)C)NC(=O)[C@H](CO)NC(=O)CNC(=O)[C@H](CS)NC(=O)[C@@H](NC(=O)[C@H](CC(=O)O)NC(=O)[C@H](CCCNC(=N)N)NC(=O)[C@H](CCSC)NC(=O)[C@H](CC(C)C)NC(=O)[C@H](CCCCN)NC(=O)[C@H](CO)NC(=O)[C@@H](NC(=O)[C@H](CS)NC(=O)[C@H](CO)NC(=O)[C@H](CC(C)C)NC(=O)[C@H](CCC(N)=O)NC(=O)[C@H](CS)NC(=O)[C@@H](N)CC(C)C)C(C)C)C(C)C)C(C)C)C(N)=O [FBXO30] (H-LCQLSCVSKLMRDVCGSLLQSRGMVI-NH2)
[1]; [7]
  Kd: 3280 nM
[2]; [9]
  Kd: 1000 to 10000 nM
[2]; [10]
  Kd: > 10000 nM
[3]; [11]
  Kd: > 10000 nM
[4]; [13]
  Kd: 2560 nM
[5]; [15]
  Kd: > 10000 nM

## CC[C@H](C)[C@H](NC(=O)[C@H](CCC(=O)O)NC(=O)[C@H](C)NC(=O)[C@H](CO)NC(=O)[C@H](Cc1ccccc1)NC(=O)[C@H](CCC(N)=O)NC(=O)[C@H](CC(=O)O)NC(=O)[C@H](C)NC(=O)[C@H](CC(C)C)NC(=O)[C@H](Cc1c[nH]cn1)NC(=O)[C@H](CCCNC(=N)N)NC(=O)[C@H](CC(C)C)NC(=O)[C@H](CCC(=O)O)NC(=O)[C@H](CCC(N)=O)NC(=O)[C@H](C)NC(=O)[C@H](CCCCN)NC(=O)[C@@H]1CCCN1C(=O)[C@H](CCCNC(=N)N)NC(=O)[C@@H](NC(=O)[C@@H](N)CO)[C@@H](C)CC)C(=O)N[C@@H](C)C(=O)N[C@@H](CCCNC(=N)N)C(=O)N[C@@H](CCCNC(=N)N)C(N)=O [MCF2L]
[1]; [10]
  Best-fit KD, Bcl-w: bound tightly
[1]; [7]
  Kd: 7 nM
[1]; [8]
  Kd: < 1000 nM
[2]; [9]
  Kd: > 10000 nM
[2]; [10]
  Kd: > 4000 nM
[3]; [11]
  Kd: > 4100 nM
[3]; [12]
  Kd: > 10000 nM
[4]; [10]
  Best-fit KD, Bcl-2: bound tightly
[4]; [13]
  Kd: 6 nM
[4]; [14]
  Kd: < 1000 nM
[5]; [10]
  Best-fit KD, Bcl-xL: bound tightly
[5]; [15]
  Kd: 4 nM
[5]; [16]
  Kd: < 1000 nM

## CC[C@H](C)[C@H](NC(=O)[C@H](CCC(N)=O)NC(=O)[C@H](C)NC(=O)[C@H](CC(C)C)NC(=O)[C@H](Cc1ccc(O)cc1)NC(=O)[C@H](CCCNC(=N)N)NC(=O)[C@H](CO)NC(=O)[C@H](CCC(=O)O)NC(=O)[C@@H]1CCCN1C(=O)[C@@H](NC(=O)[C@@H](NC(=O)[C@H](CCC(=O)O)NC(=O)[C@@H](NC(=O)[C@@H](N)CCCCN)[C@@H](C)CC)[C@@H](C)O)[C@@H](C)O)C(=O)NCC(=O)N[C@@H](CC(=O)O)C(=O)N[C@@H](CO)C(=O)N[C@H](C(=O)N[C@@H](CO)C(=O)N[C@@H](CC(C)C)C(=O)N[C@H](C(=O)N[C@@H](CS)C(=O)N[C@@H](CO)C(=O)N[C@H](C(=O)N[C@H](C(=O)NCC(N)=O)[C@@H](C)O)[C@@H](C)O)[C@@H](C)O)C(C)C [VCAM1]
[1]; [7]
  Kd: > 4350 nM
[3]; [11]
  Kd: > 3370 nM
[4]; [13]
  Kd: > 3050 nM

## DARDYAVVLRKYADKIYSISMKH-NH2 [FOLH1]
[1]; [7]
  Kd: 907 nM
[1]; [8]
  Kd: > 10000 nM
[3]; [11]
  Kd: 1600 nM
[3]; [12]
  Kd: 1000 to 10000 nM
[4]; [13]
  Kd: 70 nM
[4]; [14]
  Kd: > 10000 nM
[5]; [16]
  Kd: < 1000 nM

## FIQSLAAMLKQYADKLEFMHILT-NH2 [CASP3]
[1]; [7]
  Kd: 64 nM
[1]; [8]
  Kd: < 1000 nM
[2]; [9]
  Kd: 1000 to 10000 nM
[3]; [11]
  Kd: 43 nM
[3]; [12]
  Kd: < 1000 nM
[4]; [13]
  Kd: 264 nM
[4]; [14]
  Kd: < 1000 nM

## PEIWIAQEINRVGDEINAYYARR
[6]; [17]
  Kd: < 1000 nM

## PEIWIAQEIRRIGEEYNAYYARR
[6]; [17]
  Kd: < 1000 nM

## PEIWIAQELGRNGDEFNAYYARR
[6]; [17]
  Kd: > 10000 nM

## PEIWIAQELQRDGDEYNAYYARR
[6]; [17]
  Kd: > 10000 nM

## PEIWIAQELRRAGDVLNAYYARR
[6]; [18]
  Kd: < 1000 nM

## PEIWIAQEVDRIGDEVNAYYARR
[6]; [17]
  Kd: < 1000 nM

## PEIWIAQGLRRIGDTWNAYYARR
[6]; [18]
  Kd: < 1000 nM

## PEIWLAQYLRRLGDQINAYYARR
[6]; [18]
  Kd: < 1000 nM

## PEIWMAQVLRRFGDLLNAYYARR
[6]; [18]
  Kd: < 1000 nM

## PEIWVAQEFGRAGDEFNAYYARR
[6]; [17]
  Kd: > 10000 nM

## PEIWVAQEFGRNGDEFNAYYARR
[6]; [17]
  Kd: > 10000 nM

## PEIWVAQEFKRFGDEYNAYYARR
[6]; [17]
  Kd: > 10000 nM

## PEIWVAQEFKRYGDETNAYYARR
[6]; [17]
  Kd: > 10000 nM

## PEIWVAQEFQRAGDEYNAYYARR
[6]; [17]
  Kd: > 10000 nM

## PEIWVAQEFQRNGDEFNAYYARR
[6]; [17]
  Kd: > 10000 nM

## PEIWVAQEFRRAGDEFNAYYARR
[6]; [17]
  Kd: > 10000 nM

## PEIWVAQEIDRVGDEINAYYARR
[6]; [17]
  Kd: < 1000 nM

## PEIWVAQEIERIGDEVNAYYARR
[6]; [17]
  Kd: < 1000 nM

## RLAEVCAVLLRLGDELEMIRPSV (PGRLAEVCAVLLRLGDELEMIRPSVY) [Bok]
[6]; [19]
  Kd: < 1000 nM

## WAREIGAQLRRMADDLNAQYERR (EQWAREIGAQLRRMADDLNAQYERRR) [Puma]
[6]; [19]
  Kd: < 1000 nM
